Source: patent US20140051875A1, “CRYSTALLINE FORM OF MAXACALCITOL” (FORMOSA LABORATORIES INC., priority 2012, published 2014)
Where two headings read alike, the source gives them in different places.

What was measured:
[1] = Storage stability of maxacalcitol hydrate under an inert gas atmosphere; format: physicochemical; conditions: under an inert gas atmosphere at 25° C.
From the text: In a preferred embodiment, the maxacalcitol hydrate is stored in an amber vial.

[2] = cited from earlier work

SMILES | stability to storage: no degradation for (time) [1] | stability: decomposed after storage (time) ([2]; amber vial under inert gas environment at 25° C.) [weeks] | stability: stable for (storage time) ([2]; amber vial under inert gas environment at −20° C.) [months] | stability: stable for (storage time) ([2]; amber vial under inert gas environment at −80° C.) [months] | decomposition on storage ([2]; at 25° C., according to the JP interview form)
C=C1/C(=C\C=C2/CCC[C@]3(C)[C@@H]([C@H](C)OCCC(C)(C)O)CC[C@@H]23)C[C@@H](O)C[C@@H]1O [maxacalcitol hydrate] | at least 32 days |  |  |  | 
C=C1/C(=C\C=C2/CCC[C@]3(C)[C@@H]([C@H](C)OCCC(C)(C)O)CC[C@@H]23)C[C@@H](O)C[C@@H]1O [maxacalcitol, (+)-(5Z,7E,20S)-20-(3-Hydroxy-3-methylbutoxy)-9,10-secopregna-5,7,10(19)-triene-1α,3β-diol] |  | 4 | 6 | 36 | considerable degree of decomposition
